Results reported in patent publication US6485722B1, “Method for selective engraftment of drug-resistant hematopoietic stem cells” (Regents of the University of Minnesota, priority 1996, dated 2002).

How the values were obtained:
[1] = system: stem cells expressing a MTX-resistant DHFR; test: Competitive repopulation with 50/50 mixture of normal and DHFR transgenic marrow, Southern blot of marrow DNA; assay type: in vivo, FVB/N mice
Protocol: (§1) Male marrow is used as competitor so that Y chromosome sequences can be used as a quantitative signal for the presence of competitor-derived material at the time of analysis, while the DHFR transgene can be used as a quantitative signal for presence of DHFR-transgenic-derived material.
(§2) Animals in each of the three groups were administered either PBS or MTX at an increasing dose schedule culminating at 4 mg/kg/day. MTX administration was continued out to 60 days post-transplant. […] After 60 days, MTX administration is stopped. A small number of animals were sacrificed at this time to collect marrow samples for subsequent analysis, but most of the animals were maintained for an additional 2 months. At 4 months post-transplant, all surviving animals were sacrificed and bone marrow harvested. Each marrow sample collected was resuspended and then injected into 5 lethally-irradiated secondary female FVB/N recipients (2×10^6 donor cells per secondary recipient), saving the leftover marrow for subsequent molecular analysis. Secondary recipients were maintained for an additional 4 months before sacrificing and harvesting marrow samples.

[2] = MTX toxicity in irradiated mice transplanted with normal (non-transgenic) FVB/N marrow
Protocol: as §1, §2

## CN(Cc1cnc2nc(N)nc(N)c2n1)c1ccc(C(=O)N[C@@H](CCC(=O)O)C(=O)O)cc1 [MTX, methotrexate]
[1]; animals transplanted with transgenic marrow, MTX rather than PBS
  DHFR transgene copy number in primary recipients: substantial increase
[1]; primary transplant 50% normal / 50% DHFR transgenic marrow, MTX up to 4 mg/kg/day for 60 days, secondary recipients analysed 4 months after secondary transplant
  secondary recipients showing a substantial contribution of transgenic marrow: 5 out of 5
[2]; 0.25 mg/kg/day for 1-4 days, 0.5 mg/kg/day next four days, then 1.0 mg/kg/day, recipients of non-transgenic marrow
  toxicity of low dose MTX: caused hematopoietic toxicity
[2]; irradiated (900 rads) mice transplanted with 10^7 normal FVB/N marrow cells, MTX increasing dose schedule culminating at 4 mg/kg/day, all animals
  time at which animals succumb to MTX induced toxicity: 15-30 days post-transplant
[2]; mouse, in vivo, 4 mg/kg/day
  toxicity of high dose MTX: causes not only hematopoietic toxicity but gastrointestinal toxicity as well
